Data on 16 molecules can be found in PubChem BioAssay (NCI).

Some test systems named below: A498 renal; M14 melanoma; COLO 205 colon; K-562 leukemia; HCC-2998 colon; LOX IMVI melanoma; A549 NSCLC; NCI-H23 lung; KM12 colon; SN12C renal; SR leukemia; NCI-H460 lung; OVCAR-4 ovarian; NCI-H522 lung; EKVX NSCLC; RXF 393 renal; SF-539 CNS.
Holding throughout (experiment): NCI tumour cell line growth inhibition, 48 h

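Grown in 96-well plates, cells were treated for 48 hours with each compound at five concentrations. Insufficient inhibition: endpoint recorded as highest concentration tested. Here, GI50 denotes the concentration required for 50% inhibition of growth. TGI: total growth inhibition.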 A value given as a limit tells only on which side of the number the result lay.

As to `CN(C)CCCc1cccnc1`, the TGI in the experiment with A498 renal, in the experiment on M14 melanoma, with COLO 205 colon, in the experiment with K-562 leukemia, in the experiment with HCC-2998 colon and in the experiment with LOX IMVI melanoma was greater than 100 µM each time. Moreover, the TGI with A549 NSCLC, in the experiment with NCI-H23 lung, in the experiment on KM12 colon, in the experiment with SN12C renal, in the experiment on SR leukemia and in the experiment on NCI-H460 lung was greater than 100 µM each time. Also, the TGI with OVCAR-4 ovarian, in the experiment with NCI-H522 lung, with EKVX NSCLC and with RXF 393 renal was greater than 100 µM throughout.

With `O/N=C(\C=N\O)c1ccc2c(c1)Sc1ccccc1O2`, the TGI in the experiment on A498 renal was 41.6 µM; with M14 melanoma, 39.6 µM; with COLO 205 colon, 54.3 µM; with K-562 leukemia it was 85.4 µM; in the experiment with HCC-2998 colon, 41.9 µM; in the experiment with LOX IMVI melanoma, greater than 100 µM. Moreover, the TGI was greater than 100 µM with A549 NSCLC; 60.3 µM with NCI-H23 lung; greater than 100 µM in the experiment with KM12 colon; 37.1 µM with SN12C renal; 75.9 µM with SR leukemia; 82.4 µM in the experiment with SF-539 CNS. The TGI was found to be 60.5 µM in the experiment on NCI-H460 lung; 74.2 µM in the experiment on OVCAR-4 ovarian; 8.17 µM with NCI-H522 lung; 48.9 µM with EKVX NSCLC; 36 µM in the experiment on RXF 393 renal.

For `CC(C)=CCC[C@](C)(O)[C@H]1CC[C@]2(C)[C@@H]1[C@H](O)C[C@@H]1[C@@]3(C)CC[C@H](O[C@@H]4O[C@H](CO)[C@@H](O)[C@H](O)[C@H]4O)C(C)(C)[C@@H]3CC[C@]12C`, the TGI came to 35.4 µM with A498 renal; 46 µM with M14 melanoma; 37.3 µM in the experiment with COLO 205 colon; 38.1 µM in the experiment on K-562 leukemia; 49.4 µM with HCC-2998 colon; 91.5 µM in the experiment with LOX IMVI melanoma. Besides, the TGI with A549 NSCLC came to 37.7 µM; with NCI-H23 lung it was 38 µM; with KM12 colon, 33.3 µM; with SN12C renal, 32.9 µM; in the experiment with SR leukemia it was 28.8 µM; in the experiment on SF-539 CNS it was 38.8 µM. Also, the TGI amounted to 30.2 µM in the experiment on NCI-H460 lung; 38.1 µM in the experiment with OVCAR-4 ovarian; 31.9 µM in the experiment on NCI-H522 lung; 39.4 µM in the experiment with EKVX NSCLC; 32.2 µM in the experiment with RXF 393 renal.

For the molecule `CC(N)C(=O)c1ccc(O)cc1` (centres undefined), the TGI in the experiment with A498 renal, in the experiment with M14 melanoma, with COLO 205 colon, with K-562 leukemia, in the experiment on HCC-2998 colon and with LOX IMVI melanoma was greater than 100 µM in each case. Besides, the TGI in the experiment on A549 NSCLC, with NCI-H23 lung, with KM12 colon, with SN12C renal, in the experiment with SF-539 CNS and in the experiment on NCI-H460 lung was greater than 100 µM each time. Moreover, the TGI in the experiment on OVCAR-4 ovarian, in the experiment with NCI-H522 lung, in the experiment on EKVX NSCLC and in the experiment on RXF 393 renal was greater than 100 µM each time.

Turning to `COc1cc(C2c3cc4c(cc3OC3(O)COC(=O)C23)OCO4)cc(OC)c1OC` (centres undefined), the TGI in the experiment with A498 renal, in the experiment with M14 melanoma, in the experiment on K-562 leukemia, with HCC-2998 colon, in the experiment with LOX IMVI melanoma and in the experiment on A549 NSCLC was greater than 100 µM in each case. The TGI in the experiment on NCI-H23 lung was greater than 100 µM; in the experiment on SN12C renal it was greater than 100 µM; in the experiment with SR leukemia, 59.1 µM; with SF-539 CNS, 79.3 µM; in the experiment on NCI-H460 lung, greater than 100 µM; in the experiment on OVCAR-4 ovarian, greater than 100 µM. Further, the results for the TGI in the experiment on NCI-H522 lung, in the experiment on EKVX NSCLC and in the experiment on RXF 393 renal were 54.1 µM, greater than 100 µM and 91.5 µM, respectively.

As to `Nc1ccc2cc(S(=O)(=O)O)cc(O)c2c1N=Nc1ccc(NC(=O)Nc2ccc(N=Nc3c(N)ccc4cc(S(=O)(=O)O)cc(O)c34)c(S(=O)(=O)O)c2)cc1S(=O)(=O)O`, the TGI in the experiment on A498 renal, with COLO 205 colon, with K-562 leukemia, in the experiment on HCC-2998 colon, with LOX IMVI melanoma and with A549 NSCLC was greater than 100 µM in each case. Further, the TGI in the experiment on NCI-H23 lung, in the experiment with KM12 colon, with SN12C renal, in the experiment on SF-539 CNS, with NCI-H460 lung and in the experiment with OVCAR-4 ovarian was greater than 100 µM throughout. Also, the TGI in the experiment with NCI-H522 lung, with EKVX NSCLC and in the experiment with RXF 393 renal was greater than 100 µM in each case.

For `COc1nc(/C=N/NC(N)=S)nc(OC)n1`, the TGI in the experiment with A498 renal, in the experiment on M14 melanoma, in the experiment on COLO 205 colon, in the experiment on K-562 leukemia, in the experiment with HCC-2998 colon and with A549 NSCLC was greater than 100 µM in each case. Moreover, the TGI with NCI-H23 lung, with KM12 colon, with SN12C renal, in the experiment with SR leukemia, in the experiment on SF-539 CNS and with NCI-H460 lung was greater than 100 µM throughout. In addition, the TGI with OVCAR-4 ovarian, in the experiment on NCI-H522 lung, in the experiment on EKVX NSCLC and in the experiment with RXF 393 renal was greater than 100 µM in each case.

With `CCc1ccc(CCC(=O)O)nc1`, the TGI in the experiment on A498 renal, in the experiment with M14 melanoma, in the experiment with COLO 205 colon, with K-562 leukemia, with HCC-2998 colon and in the experiment with LOX IMVI melanoma was greater than 100 µM in each case. Further, the TGI in the experiment on A549 NSCLC, with NCI-H23 lung, in the experiment with KM12 colon, with SN12C renal, in the experiment with SR leukemia and in the experiment with SF-539 CNS was greater than 100 µM in each case. Also, the TGI in the experiment with NCI-H460 lung, with OVCAR-4 ovarian, with NCI-H522 lung, in the experiment with EKVX NSCLC and with RXF 393 renal was greater than 100 µM in each case.

With `COc1ccc2c(C)cc(N/N=C/c3sccc3C)nc2c1`, the TGI in the experiment with M14 melanoma was determined as 24.1 µM; in the experiment with COLO 205 colon it was 17.9 µM; in the experiment with HCC-2998 colon, 25.7 µM; with LOX IMVI melanoma, 21.5 µM; in the experiment on A549 NSCLC, 29.4 µM; with NCI-H23 lung, 33.1 µM. In addition, the TGI was 21.8 µM in the experiment with KM12 colon; 20.4 µM in the experiment on SN12C renal; 87.3 µM in the experiment with SR leukemia; 27.5 µM with SF-539 CNS; greater than 100 µM with OVCAR-4 ovarian; 21.9 µM in the experiment on NCI-H522 lung. Also, in the experiment on RXF 393 renal, the TGI is 32 µM.

For `CCOc1ccc(C2=C(Cl)c3cc(OC)c(OC)cc3C2Cl)cc1` (centres undefined), the TGI with A498 renal was 90.4 µM; with M14 melanoma it was greater than 100 µM; in the experiment with COLO 205 colon it was greater than 100 µM; with LOX IMVI melanoma, 45.1 µM; in the experiment with NCI-H23 lung, greater than 100 µM; in the experiment on SN12C renal, greater than 100 µM. The TGI was greater than 100 µM with SF-539 CNS, greater than 100 µM with NCI-H460 lung, 49 µM in the experiment on NCI-H522 lung and greater than 100 µM in the experiment on EKVX NSCLC.

`Cc1c2ccccc2c(CO)c2cc(F)c3ccccc3c12`: the TGI in the experiment with A498 renal was greater than 100 µM; in the experiment with COLO 205 colon it was 32.2 µM; in the experiment with K-562 leukemia, greater than 100 µM; in the experiment on HCC-2998 colon it was greater than 100 µM; in the experiment on LOX IMVI melanoma, 36.1 µM; with A549 NSCLC it was greater than 100 µM. The TGI in the experiment with NCI-H23 lung is greater than 100 µM; with KM12 colon it was 56.3 µM; with SN12C renal, 33.3 µM; in the experiment on SR leukemia, 70.7 µM; in the experiment on SF-539 CNS it was greater than 100 µM; with OVCAR-4 ovarian it was 98.2 µM. Moreover, the TGI in the experiment with NCI-H522 lung is 26.3 µM; with EKVX NSCLC, greater than 100 µM; in the experiment with RXF 393 renal, 61.5 µM.

In the case of `CN1C[C@H]2[C@@H](C1=O)[C@H](c1ccc([N+](=O)[O-])cc1)ON2C`, the TGI in the experiment on M14 melanoma, with COLO 205 colon, with K-562 leukemia, in the experiment on HCC-2998 colon, in the experiment with LOX IMVI melanoma and with A549 NSCLC was greater than 100 µM in each case. Further, the TGI in the experiment on NCI-H23 lung, with SN12C renal, with SR leukemia, in the experiment on NCI-H460 lung, with OVCAR-4 ovarian and in the experiment on NCI-H522 lung was greater than 100 µM throughout.

In the case of `O=C1ON(Cc2ccccc2)C(c2ccccc2)N1c1ccccc1` (centres undefined), the TGI in the experiment with A498 renal, with COLO 205 colon, in the experiment on K-562 leukemia, in the experiment with HCC-2998 colon, in the experiment with LOX IMVI melanoma and in the experiment with A549 NSCLC was greater than 100 µM in each case. Further, the TGI in the experiment on NCI-H23 lung, in the experiment with KM12 colon, in the experiment on SN12C renal, in the experiment on SF-539 CNS, in the experiment on NCI-H460 lung and in the experiment on OVCAR-4 ovarian was greater than 100 µM in each case. Further, the TGI with NCI-H522 lung, in the experiment with EKVX NSCLC and in the experiment on RXF 393 renal was greater than 100 µM each time.

`COc1cc(C2C(Cl)C(=O)N2NC(=O)c2ccc(NC(C)=O)cc2)cc(Br)c1O` (centres undefined): the TGI with COLO 205 colon, in the experiment on K-562 leukemia, in the experiment on HCC-2998 colon, in the experiment on A549 NSCLC, in the experiment on NCI-H23 lung and in the experiment with KM12 colon was greater than 100 µM each time. Besides, the TGI in the experiment with SR leukemia, in the experiment with SF-539 CNS, in the experiment with NCI-H460 lung and in the experiment with NCI-H522 lung was greater than 100 µM each time.

Take `CCCCCCNC(=O)c1cc(C#Cc2cc(OC)ccc2OC)ccc1OC`: the TGI with A498 renal was greater than 100 µM; in the experiment on M14 melanoma, greater than 100 µM; in the experiment with COLO 205 colon it was greater than 100 µM; in the experiment with K-562 leukemia, greater than 100 µM; in the experiment on HCC-2998 colon, 6.25 µM; in the experiment with LOX IMVI melanoma, greater than 100 µM. Moreover, the TGI in the experiment on A549 NSCLC, in the experiment on NCI-H23 lung, in the experiment with KM12 colon, in the experiment on SN12C renal, in the experiment with SR leukemia and in the experiment on SF-539 CNS was greater than 100 µM throughout. The TGI in the experiment with NCI-H460 lung, in the experiment with OVCAR-4 ovarian, in the experiment with NCI-H522 lung and in the experiment with EKVX NSCLC was greater than 100 µM each time. Besides, the GI50 in the experiment on SN12C renal and in the experiment with SF-539 CNS was greater than 100 µM in each case.

With `c1ccc2c(c1)ccc1ncccc12`, the TGI in the experiment with A498 renal, in the experiment with M14 melanoma, in the experiment on COLO 205 colon, in the experiment with K-562 leukemia, with HCC-2998 colon and with LOX IMVI melanoma was greater than 100 µM each time. Further, the TGI in the experiment with A549 NSCLC, in the experiment on NCI-H23 lung, with KM12 colon, with SN12C renal, in the experiment on SR leukemia and in the experiment with SF-539 CNS was greater than 100 µM throughout. Also, the TGI with NCI-H460 lung, with OVCAR-4 ovarian, in the experiment with NCI-H522 lung, with EKVX NSCLC and in the experiment with RXF 393 renal was greater than 100 µM in each case.
